# According to US20230330093A1, “APPLICATION OF NITROGEN-CONTAINING SATURATED HETEROCYCLIC COMPOUND” (SHANGHAI PHARMACEUTICALS HOLDING CO., LTD., priority 2020, published 2023):
# Key:
# [1] = system: cynomolgus monkeys; assay: 4-week safety study: hematology and coagulation; format: in vivo
# Method: […] (1) Hematological and coagulation index examination were performed using a Bayer ADVIA2120 (Germany) and a Sysmex CA-1500 (Japan). (2) The serum biochemical examination was assessed using a HITACHI 7080 automated analyzer (Japan) and an Easylyte PLUS electrolyte analyzer (MEDICA, America). (3) The 24-h pooled urine of each animal was collected by a tray under each cage. Urinalysis was carried out using Uritest-300 (China). (4) The 24-h pooled faeces of each monkey were collected by a tray under each cage. Fecal occult blood was detected. (5) ACCESS 2 Chemiluminescence immunoassay was used for myocardial troponin (TropI, non-GLP) test.
# [2] = system: rhesus monkeys with spontaneous chronic kidney disease; assay: Safety tolerance study (adverse events, liver and renal function, food intake, body weight, hematology), 8-week administration; format: in vivo, Macaca mulatta (Rhesus Macaque); conditions: 1, 2, 5 mg/kg qd groups, 8-week administration period
# Text: Glucose and lipid metabolism and liver function: FPG, FRA, LDL-c, HDL-c, TG, TC, NT-proBNP, ALT, AST, TBIL, etc., twice before administration, once at weeks 4 and 8 respectively after administration;
# Other biochemical indicators and hematology testing, once each before and after administration;
# Body weight: once before administration, once a week during the administration period;
# Hematology testing equipment: Siemens ADVIA 2120i Hematology Systems.
# Number of observations: Observation was performed once a day.
# Observation method: observation in cage.
# Observation content: injection site, skin, hair, eyes, ears, nose, oral cavity, chest, abdomen, urogenital, limbs and other parts, as well as breathing, exercise, urinary, defecation and behavior changes.
# Feeding method: Food was supplied once at 8:009:00 in the morning, 10:00 in the morning, 2:00 in the afternoon, and 4:00 in the afternoon, respectively, to ensure that there was food in the food box and animals ate freely. The remaining feed was removed at 07:40-8:00 in the next day.
# Feeding amount: about 250-500 g/animal/day. In the experiment, it was ensured that there was feed in the food box for 24 hours, and the animals can eat freely.
# Method for measuring food intake: The feed was estimated by a semi-quantitative method, and the amount of food given, the amount discarded and the remaining amount in food boxes were recorded every day. […]
# [3] = all treated females and high-dose males
structure (smiles),measurement,setting,value
COC(=O)NCCCn1nc([C@@H](C)N(C(=O)[C@H]2CNCCO2)C2CC2)c2ccc(C)nc21 [compound of Formula I],APTT,"[1]; Female, 20 mg/kg, d0",16.7 ± 0.8 s
same,Fbg,"[1]; Female, 20 mg/kg, d0",2.0 ± 0.3 g/L
same,LYMPH,"[1]; Female, 20 mg/kg, d0",51.3 ± 18.0%
same,NEUT,"[1]; Female, 20 mg/kg, d0",42.5 ± 18.8%
same,WBC,"[1]; Female, 20 mg/kg, d0",15.3 ± 3.6 ×10^9 · L^−1
same,APTT,"[1]; Female, 20 mg/kg, d14",15.9 ± 1.0 s
same,Fbg,"[1]; Female, 20 mg/kg, d14",2.9 ± 0.9 g/L
same,LYMPH,"[1]; Female, 20 mg/kg, d14",40.8 ± 11.3%
same,NEUT,"[1]; Female, 20 mg/kg, d14",52.5 ± 10.4%
same,WBC,"[1]; Female, 20 mg/kg, d14",16.0 ± 3.9 ×10^9 · L^−1
same,APTT,"[1]; Female, 20 mg/kg, d26",18.3 ± 1.4 s
same,Fbg,"[1]; Female, 20 mg/kg, d26",2.8 ± 0.9 g/L
same,LYMPH,"[1]; Female, 20 mg/kg, d26",33.1 ± 12.8 %
same,NEUT,"[1]; Female, 20 mg/kg, d26",61.4 ± 13.2 %
same,WBC,"[1]; Female, 20 mg/kg, d26",19.1 ± 4.0 ×10^9 · L^−1
same,APTT,"[1]; Female, 20 mg/kg, d 56",16.4 ± 1.1 s
same,Fbg,"[1]; Female, 20 mg/kg, d 56",1.7 ± 0.5 g/L
same,LYMPH,"[1]; Female, 20 mg/kg, d 56",53.1 ± 7.4%
same,NEUT,"[1]; Female, 20 mg/kg, d 56",38.1 ± 7.1%
same,WBC,"[1]; Female, 20 mg/kg, d 56",12.4 ± 1.6 ×10^9 · L^−1
same,APTT,"[1]; Female, 100 mg/kg, d0",15.0 ± 1.6 s
same,Fbg,"[1]; Female, 100 mg/kg, d0",1.9 ± 0.4 g/L
same,LYMPH,"[1]; Female, 100 mg/kg, d0",44.0 ± 16.5%
same,NEUT,"[1]; Female, 100 mg/kg, d0",50.5 ± 17.3%
same,WBC,"[1]; Female, 100 mg/kg, d0",10.9 ± 2.9 ×10^9 · L^−1
same,APTT,"[1]; Female, 100 mg/kg, d14",14.5 ± 0.9 s
same,Fbg,"[1]; Female, 100 mg/kg, d14",2.5 ± 0.4 g/L
same,LYMPH,"[1]; Female, 100 mg/kg, d14",33.2 ± 4.4 %
same,NEUT,"[1]; Female, 100 mg/kg, d14",59.5 ± 5.3 %
same,WBC,"[1]; Female, 100 mg/kg, d14",14.0 ± 4.0 ×10^9 · L^−1
same,APTT,"[1]; Female, 100 mg/kg, d26",19.7 ± 2.2 s
same,Fbg,"[1]; Female, 100 mg/kg, d26",3.5 ± 0.8 g/L
same,LYMPH,"[1]; Female, 100 mg/kg, d26",30.0 ± 6.8 %
same,NEUT,"[1]; Female, 100 mg/kg, d26",63.2 ± 6.4 %
same,WBC,"[1]; Female, 100 mg/kg, d26",15.9 ± 6.2 ×10^9 · L^−1
same,APTT,"[1]; Female, 100 mg/kg, d 56",15.8 ± 1.5 s
same,Fbg,"[1]; Female, 100 mg/kg, d 56",2.1 ± 0.3 g/L
same,LYMPH,"[1]; Female, 100 mg/kg, d 56",48.7 ± 0.6%
same,NEUT,"[1]; Female, 100 mg/kg, d 56",45.2 ± 2.3%
same,WBC,"[1]; Female, 100 mg/kg, d 56",9.9 ± 1.0 ×10^9 · L^−1
same,APTT,"[1]; Female, 450 mg/kg, d0",16.9 ± 1.4 s
same,Fbg,"[1]; Female, 450 mg/kg, d0",1.8 ± 0.3 g/L
same,LYMPH,"[1]; Female, 450 mg/kg, d0",51.8 ± 12.2%
same,NEUT,"[1]; Female, 450 mg/kg, d0",43.3 ± 12.3%
same,WBC,"[1]; Female, 450 mg/kg, d0",14.4 ± 1.7 ×10^9 · L^−1
same,APTT,"[1]; Female, 450 mg/kg, d14",18.6 ± 0.8 s
same,Fbg,"[1]; Female, 450 mg/kg, d14",3.9 ± 0.8 g/L
same,LYMPH,"[1]; Female, 450 mg/kg, d14",30.1 ± 14.3 %
same,NEUT,"[1]; Female, 450 mg/kg, d14",63.5 ± 15.2 %
same,WBC,"[1]; Female, 450 mg/kg, d14",16.9 ± 7.8 ×10^9 · L^−1
same,APTT,"[1]; Female, 450 mg/kg, d26",20.1 ± 3.1 s
same,Fbg,"[1]; Female, 450 mg/kg, d26",4.2 ± 0.7 g/L
same,LYMPH,"[1]; Female, 450 mg/kg, d26",26.9 ± 8.9 %
same,NEUT,"[1]; Female, 450 mg/kg, d26",67.5 ± 9.2 %
same,WBC,"[1]; Female, 450 mg/kg, d26",18.1 ± 3.7 ×10^9 · L^−1
same,APTT,"[1]; Female, 450 mg/kg, d 56",18.0 ± 3.5 s
same,Fbg,"[1]; Female, 450 mg/kg, d 56",1.4 ± 0.0 g/L
same,LYMPH,"[1]; Female, 450 mg/kg, d 56",53.3 ± 0.3%
same,NEUT,"[1]; Female, 450 mg/kg, d 56",42.3 ± 0.6%
same,WBC,"[1]; Female, 450 mg/kg, d 56",14.0 ± 4.9 ×10^9 · L^−1
same,APTT,"[1]; Male, 20 mg/kg, d0",16.4 ± 1.1 s
same,Fbg,"[1]; Male, 20 mg/kg, d0",2.1 ± 0.6 g/L
same,LYMPH,"[1]; Male, 20 mg/kg, d0",55.3 ± 14.6%
same,NEUT,"[1]; Male, 20 mg/kg, d0",39.9 ± 14.6%
same,WBC,"[1]; Male, 20 mg/kg, d0",13.4 ± 2.5 ×10^9 · L^−1
same,APTT,"[1]; Male, 20 mg/kg, d14",17.8 ± 2.7 s
same,Fbg,"[1]; Male, 20 mg/kg, d14",3.2 ± 0.8 g/L
same,LYMPH,"[1]; Male, 20 mg/kg, d14",51.1 ± 19.6%
same,NEUT,"[1]; Male, 20 mg/kg, d14",43.1 ± 20.4%
same,WBC,"[1]; Male, 20 mg/kg, d14",17.7 ± 9.3 ×10^9 · L^−1
same,APTT,"[1]; Male, 20 mg/kg, d26",19.5 ± 2.4 s
same,Fbg,"[1]; Male, 20 mg/kg, d26",2.2 ± 0.4 g/L
same,LYMPH,"[1]; Male, 20 mg/kg, d26",59.5 ± 11.9%
same,NEUT,"[1]; Male, 20 mg/kg, d26",35.1 ± 12.4%
same,WBC,"[1]; Male, 20 mg/kg, d26",13.8 ± 6.5 ×10^9 · L^−1
same,APTT,"[1]; Male, 20 mg/kg, d 56",21.3 ± 4.0 s
same,Fbg,"[1]; Male, 20 mg/kg, d 56",3.1 ± 1.4 g/L
same,LYMPH,"[1]; Male, 20 mg/kg, d 56",53.3 ± 14.3%
same,NEUT,"[1]; Male, 20 mg/kg, d 56",38.5 ± 12.6%
same,WBC,"[1]; Male, 20 mg/kg, d 56",20.1 ± 4.2 ×10^9 · L^−1
same,APTT,"[1]; Male, 100 mg/kg, d0",16.6 ± 1.8 s
same,Fbg,"[1]; Male, 100 mg/kg, d0",2.2 ± 0.3 g/L
same,LYMPH,"[1]; Male, 100 mg/kg, d0",61.5 ± 16.2%
same,NEUT,"[1]; Male, 100 mg/kg, d0",32.6 ± 18.2%
same,WBC,"[1]; Male, 100 mg/kg, d0",12.6 ± 2.3 ×10^9 · L^−1
same,APTT,"[1]; Male, 100 mg/kg, d14",15.5 ± 0.5 s
same,Fbg,"[1]; Male, 100 mg/kg, d14",2.8 ± 0.7 g/L
same,LYMPH,"[1]; Male, 100 mg/kg, d14",48.0 ± 12.2%
same,NEUT,"[1]; Male, 100 mg/kg, d14",45.2 ± 12.2%
same,WBC,"[1]; Male, 100 mg/kg, d14",15.6 ± 6.6 ×10^9 · L^−1
same,APTT,"[1]; Male, 100 mg/kg, d26",22.5 ± 2.5 s
same,Fbg,"[1]; Male, 100 mg/kg, d26",4.1 ± 1.2 g/L
same,LYMPH,"[1]; Male, 100 mg/kg, d26",32.1 ± 9.4%
same,NEUT,"[1]; Male, 100 mg/kg, d26",60.8 ± 10.5%
same,WBC,"[1]; Male, 100 mg/kg, d26",20.3 ± 2.9 ×10^9 · L^−1
same,APTT,"[1]; Male, 100 mg/kg, d 56",17.7 ± 1.0 s
same,Fbg,"[1]; Male, 100 mg/kg, d 56",1.7 ± 0.3 g/L
same,LYMPH,"[1]; Male, 100 mg/kg, d 56",52.7 ± 9.0%
same,NEUT,"[1]; Male, 100 mg/kg, d 56",42.5 ± 11.2%
same,WBC,"[1]; Male, 100 mg/kg, d 56",14.1 ± 0.2 ×10^9 · L^−1
same,APTT,"[1]; Male, 450 mg/kg, d0",17.0 ± 2.1 s
same,Fbg,"[1]; Male, 450 mg/kg, d0",2.2 ± 0.7 g/L
same,LYMPH,"[1]; Male, 450 mg/kg, d0",48.6 ± 16.8%
same,NEUT,"[1]; Male, 450 mg/kg, d0",46.9 ± 17.3%
same,WBC,"[1]; Male, 450 mg/kg, d0",12.0 ± 3.8 ×10^9 · L^−1
same,APTT,"[1]; Male, 450 mg/kg, d14",16.1 ± 0.8 s
same,Fbg,"[1]; Male, 450 mg/kg, d14",3.1 ± 1.0 g/L
same,LYMPH,"[1]; Male, 450 mg/kg, d14",35.6 ± 15.5%
same,NEUT,"[1]; Male, 450 mg/kg, d14",59.2 ± 16.0%
same,WBC,"[1]; Male, 450 mg/kg, d14",16.7 ± 6.4 ×10^9 · L^−1
same,APTT,"[1]; Male, 450 mg/kg, d26",20.0 ± 3.3 s
same,Fbg,"[1]; Male, 450 mg/kg, d26",4.1 ± 0.6 g/L
same,LYMPH,"[1]; Male, 450 mg/kg, d26",26.5 ± 12.0 %
same,NEUT,"[1]; Male, 450 mg/kg, d26",68.6 ± 12.3 %
same,WBC,"[1]; Male, 450 mg/kg, d26",18.6 ± 5.9 ×10^9 · L^−1
same,APTT,"[1]; Male, 450 mg/kg, d 56",19.9 ± 0.3 s
same,Fbg,"[1]; Male, 450 mg/kg, d 56",1.8 ± 0.0 g/L
same,LYMPH,"[1]; Male, 450 mg/kg, d 56",59.8 ± 22.8%
same,NEUT,"[1]; Male, 450 mg/kg, d 56",36.7 ± 23.2%
same,WBC,"[1]; Male, 450 mg/kg, d 56",14.6 ± 0.8 ×10^9 · L^−1
same,LYMPH %,[1]; [3],decreased
same,NEUT %,[1]; [3],Increased
same,APTT,[1]; high-dose females,increases
same,Fbg,[1]; mid- and high-dose animals,increases
COC(=O)NCCCn1nc([C@@H](C)N(C(=O)[C@H]2CNCCO2)C2CC2)c2ccc(C)nc21.O=C(O)C[C@H](O)C(=O)O [malate of compound of Formula I],adverse events related to administration,[2],no adverse events related to administration
same,"changes in liver function, renal function, food intake, body weight, hematological indicators",[2],no significant changes were observed
